Measurements published in PMC11237774, “On-target, dual aminopeptidase inhibition provides cross-species antimalarial activity” (mBio, 2024).

Assays:
HDAC8 = target: T1, HDAC8 (Homo sapiens, UniProt Q9BY41); test: Eurofins Cerep safety pharmacology screening; assay type: biochemical; settings: read-out: Mean % inhibition (n=2); HDAC8, 10 µM
T1 construct: Eurofins Cerep (contract screen)
Excerpt: (§1) Results showing any inhibition or stimulation higher than 50% are considered to represent significant effects of the test compounds.

MMP-9 = target: T2, MMP-9 (Homo sapiens, UniProt P14780); test: Eurofins Cerep safety pharmacology screening; assay type: biochemical; settings: read-out: Mean % inhibition (n=2); MMP-9, 10 µM
T2 construct: Eurofins Cerep (contract screen)
T2 sequence (P14780 94-707): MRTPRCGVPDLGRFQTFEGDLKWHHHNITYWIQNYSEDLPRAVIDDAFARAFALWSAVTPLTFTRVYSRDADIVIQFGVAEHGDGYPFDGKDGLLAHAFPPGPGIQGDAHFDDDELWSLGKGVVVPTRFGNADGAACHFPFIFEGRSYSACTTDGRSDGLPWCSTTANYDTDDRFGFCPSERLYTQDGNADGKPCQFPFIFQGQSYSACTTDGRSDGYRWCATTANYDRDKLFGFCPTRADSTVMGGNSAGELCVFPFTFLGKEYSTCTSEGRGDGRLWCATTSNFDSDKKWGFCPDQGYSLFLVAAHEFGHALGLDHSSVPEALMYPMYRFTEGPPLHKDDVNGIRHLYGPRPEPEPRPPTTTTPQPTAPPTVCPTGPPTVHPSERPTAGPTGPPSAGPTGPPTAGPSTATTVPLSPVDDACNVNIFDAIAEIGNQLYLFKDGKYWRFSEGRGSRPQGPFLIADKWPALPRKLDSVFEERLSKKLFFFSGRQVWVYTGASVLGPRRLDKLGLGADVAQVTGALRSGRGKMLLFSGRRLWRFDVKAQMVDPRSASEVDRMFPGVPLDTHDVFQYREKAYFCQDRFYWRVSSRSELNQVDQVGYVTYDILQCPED
Excerpt: as §1

HDAC10 = target: T3, HDAC10 (Homo sapiens, UniProt Q969S8); test: Eurofins Cerep safety pharmacology screening; assay type: biochemical; settings: read-out: Mean % inhibition (n=2); HDAC10, 10 µM
T3 construct: Eurofins Cerep (contract screen)
T3 sequence (Q969S8 whole entry): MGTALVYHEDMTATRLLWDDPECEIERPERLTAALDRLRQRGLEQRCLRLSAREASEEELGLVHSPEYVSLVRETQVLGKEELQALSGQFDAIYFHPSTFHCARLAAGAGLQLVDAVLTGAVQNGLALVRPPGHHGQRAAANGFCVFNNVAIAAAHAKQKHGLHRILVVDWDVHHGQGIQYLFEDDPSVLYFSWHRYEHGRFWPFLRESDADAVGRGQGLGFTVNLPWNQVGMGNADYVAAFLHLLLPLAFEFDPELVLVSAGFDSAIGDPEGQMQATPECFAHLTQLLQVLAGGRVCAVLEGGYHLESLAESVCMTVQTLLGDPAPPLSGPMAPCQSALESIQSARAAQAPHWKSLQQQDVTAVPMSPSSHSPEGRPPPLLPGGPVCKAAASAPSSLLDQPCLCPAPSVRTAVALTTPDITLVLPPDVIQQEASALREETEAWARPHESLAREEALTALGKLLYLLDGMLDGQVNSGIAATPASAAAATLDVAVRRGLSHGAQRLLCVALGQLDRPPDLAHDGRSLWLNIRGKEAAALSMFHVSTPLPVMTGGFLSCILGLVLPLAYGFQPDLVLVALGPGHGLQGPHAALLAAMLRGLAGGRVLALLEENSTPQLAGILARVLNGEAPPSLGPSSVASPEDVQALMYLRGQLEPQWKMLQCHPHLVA
Excerpt: as §1

MMP-8 = target: T4, MMP-8 (Homo sapiens, UniProt P22894); test: Eurofins Cerep safety pharmacology screening; assay type: biochemical; settings: read-out: Mean % inhibition (n=2), MMP-8, 10 µM
T4 construct: Eurofins Cerep (contract screen)
Excerpt: as §1

MMP-3 = target: T5, MMP-3 (Homo sapiens, UniProt P08254); test: Eurofins Cerep safety pharmacology screening; assay type: biochemical; settings: read-out: Mean % inhibition (n=2); MMP-3, 10 µM
T5 construct: Eurofins Cerep (contract screen)
T5 sequence (P08254 100-477): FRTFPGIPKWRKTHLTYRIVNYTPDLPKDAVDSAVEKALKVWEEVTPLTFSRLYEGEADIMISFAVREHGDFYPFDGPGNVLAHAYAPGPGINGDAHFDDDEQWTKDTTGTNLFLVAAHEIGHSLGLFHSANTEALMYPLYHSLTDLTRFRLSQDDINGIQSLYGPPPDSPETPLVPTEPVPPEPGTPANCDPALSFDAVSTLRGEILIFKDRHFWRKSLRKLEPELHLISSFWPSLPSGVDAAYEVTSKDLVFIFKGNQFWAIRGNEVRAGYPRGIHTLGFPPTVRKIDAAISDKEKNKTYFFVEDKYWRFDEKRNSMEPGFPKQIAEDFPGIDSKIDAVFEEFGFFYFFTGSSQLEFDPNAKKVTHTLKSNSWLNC
Excerpt: as §1

HDAC1 = target: T6, HDAC1 (Homo sapiens, UniProt Q13547); test: Eurofins Cerep safety pharmacology screening; assay type: biochemical; settings: read-out: Mean % inhibition (n=2); HDAC1, 10 µM
T6 construct: Eurofins Cerep (contract screen)
T6 sequence (Q13547 whole entry): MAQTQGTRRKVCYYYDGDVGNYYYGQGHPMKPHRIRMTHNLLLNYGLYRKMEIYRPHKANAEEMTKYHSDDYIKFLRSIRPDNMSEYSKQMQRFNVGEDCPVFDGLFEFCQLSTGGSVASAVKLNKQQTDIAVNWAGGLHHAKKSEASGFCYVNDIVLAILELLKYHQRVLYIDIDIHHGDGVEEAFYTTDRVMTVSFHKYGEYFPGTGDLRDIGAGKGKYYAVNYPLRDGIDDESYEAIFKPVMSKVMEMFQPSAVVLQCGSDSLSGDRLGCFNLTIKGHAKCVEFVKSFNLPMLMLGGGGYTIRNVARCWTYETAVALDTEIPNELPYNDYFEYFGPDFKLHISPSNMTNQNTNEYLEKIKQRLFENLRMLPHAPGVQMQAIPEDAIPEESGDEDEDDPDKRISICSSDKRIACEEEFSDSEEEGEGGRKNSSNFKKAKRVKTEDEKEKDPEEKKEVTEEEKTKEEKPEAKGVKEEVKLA
Excerpt: as §1

HDAC9 = target: T7, HDAC9 (Homo sapiens, UniProt Q9UKV0); test: Eurofins Cerep safety pharmacology screening; assay type: biochemical; settings: read-out: Mean % inhibition (n=2); HDAC9, 10 µM
T7 construct: Eurofins Cerep (contract screen)
T7 sequence (Q9UKV0 whole entry): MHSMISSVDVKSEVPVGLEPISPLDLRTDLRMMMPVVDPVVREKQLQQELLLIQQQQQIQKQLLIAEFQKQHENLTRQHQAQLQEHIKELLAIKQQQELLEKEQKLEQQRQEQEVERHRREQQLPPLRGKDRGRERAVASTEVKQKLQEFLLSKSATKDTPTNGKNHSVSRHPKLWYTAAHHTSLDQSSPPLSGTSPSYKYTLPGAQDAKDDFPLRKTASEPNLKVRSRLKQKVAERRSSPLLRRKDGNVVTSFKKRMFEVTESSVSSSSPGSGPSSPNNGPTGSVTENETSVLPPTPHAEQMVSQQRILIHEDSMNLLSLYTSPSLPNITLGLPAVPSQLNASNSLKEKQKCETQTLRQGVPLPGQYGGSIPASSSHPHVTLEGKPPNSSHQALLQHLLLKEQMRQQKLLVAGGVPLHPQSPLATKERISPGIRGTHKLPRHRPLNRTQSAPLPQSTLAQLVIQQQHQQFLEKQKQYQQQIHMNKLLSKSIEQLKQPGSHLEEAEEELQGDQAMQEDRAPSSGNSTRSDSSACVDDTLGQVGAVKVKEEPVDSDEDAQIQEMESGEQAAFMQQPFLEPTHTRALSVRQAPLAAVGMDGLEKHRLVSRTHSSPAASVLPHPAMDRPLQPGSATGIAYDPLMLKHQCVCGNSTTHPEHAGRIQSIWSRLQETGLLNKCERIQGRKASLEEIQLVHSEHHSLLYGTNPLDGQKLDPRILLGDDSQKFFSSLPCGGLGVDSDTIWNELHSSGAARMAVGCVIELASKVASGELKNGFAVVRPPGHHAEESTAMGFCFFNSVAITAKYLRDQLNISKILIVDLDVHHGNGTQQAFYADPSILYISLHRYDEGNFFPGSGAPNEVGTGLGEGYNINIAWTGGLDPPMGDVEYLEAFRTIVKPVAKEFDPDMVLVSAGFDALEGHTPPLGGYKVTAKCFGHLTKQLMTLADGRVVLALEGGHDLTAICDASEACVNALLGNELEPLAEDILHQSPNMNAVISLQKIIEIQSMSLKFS
Excerpt: as §1

MMP-2 = target: T8, MMP-2 (Homo sapiens, UniProt P08253); test: Eurofins Cerep safety pharmacology screening; assay type: biochemical; settings: read-out: Mean % inhibition (n=2); MMP-2, 10 µM
T8 construct: Eurofins Cerep (contract screen)
T8 sequence (P08253 110-660): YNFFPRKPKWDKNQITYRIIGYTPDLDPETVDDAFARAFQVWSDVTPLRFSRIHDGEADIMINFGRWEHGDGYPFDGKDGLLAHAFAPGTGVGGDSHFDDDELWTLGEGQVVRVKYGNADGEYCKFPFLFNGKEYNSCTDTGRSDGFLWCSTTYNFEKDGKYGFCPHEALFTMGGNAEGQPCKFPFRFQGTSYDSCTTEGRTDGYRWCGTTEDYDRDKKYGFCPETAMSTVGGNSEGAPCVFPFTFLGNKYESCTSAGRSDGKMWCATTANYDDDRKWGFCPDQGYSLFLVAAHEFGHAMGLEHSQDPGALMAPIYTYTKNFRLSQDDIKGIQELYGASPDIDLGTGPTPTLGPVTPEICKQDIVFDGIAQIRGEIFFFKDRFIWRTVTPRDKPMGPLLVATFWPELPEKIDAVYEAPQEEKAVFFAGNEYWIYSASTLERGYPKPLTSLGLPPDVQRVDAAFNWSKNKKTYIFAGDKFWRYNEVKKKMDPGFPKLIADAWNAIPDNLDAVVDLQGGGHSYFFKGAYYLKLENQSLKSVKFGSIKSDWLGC
Excerpt: as §1

HDAC5 = target: T9, HDAC5 (Homo sapiens, UniProt Q9UQL6); test: Eurofins Cerep safety pharmacology screening; assay type: biochemical; settings: read-out: Mean % inhibition (n=2); HDAC5, 10 µM
T9 construct: Eurofins Cerep (contract screen)
Excerpt: as §1

MMP-7 = target: T10, MMP-7 (Homo sapiens, UniProt P09237); test: Eurofins Cerep safety pharmacology screening; assay type: biochemical; settings: read-out: Mean % inhibition (n=2); MMP-7, 10 µM
T10 construct: Eurofins Cerep (contract screen)
T10 sequence (P09237 95-267): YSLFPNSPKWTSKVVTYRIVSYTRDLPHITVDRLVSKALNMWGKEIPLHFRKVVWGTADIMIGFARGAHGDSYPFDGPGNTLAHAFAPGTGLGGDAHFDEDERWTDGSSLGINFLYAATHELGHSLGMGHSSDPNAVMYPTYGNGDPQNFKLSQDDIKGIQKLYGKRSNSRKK
Excerpt: as §1

MMP-14 = target: T11, MMP-14 (Homo sapiens, UniProt P50281); test: Eurofins Cerep safety pharmacology screening; assay type: biochemical; settings: read-out: Mean % inhibition (n=2); MMP-14, 10 µM
T11 construct: Eurofins Cerep (contract screen)
Excerpt: as §1

[1] = target: human aminopeptidase N (APN or CD13); parameters: method as in PMID 30537832; settings: cited from earlier work
PfA-M17 = target: T12, PfA-M17 (Plasmodium falciparum, UniProt Q8IL11); test: Recombinant aminopeptidase fluorescence assay (H-Leu-NHMec); assay type: biochemical, P. falciparum; settings: Pf M17, Morrison equation; read-out: Ki^(app) ± SEM
T12 construct: made in house
T12 sequence (Q8IL11 84-605): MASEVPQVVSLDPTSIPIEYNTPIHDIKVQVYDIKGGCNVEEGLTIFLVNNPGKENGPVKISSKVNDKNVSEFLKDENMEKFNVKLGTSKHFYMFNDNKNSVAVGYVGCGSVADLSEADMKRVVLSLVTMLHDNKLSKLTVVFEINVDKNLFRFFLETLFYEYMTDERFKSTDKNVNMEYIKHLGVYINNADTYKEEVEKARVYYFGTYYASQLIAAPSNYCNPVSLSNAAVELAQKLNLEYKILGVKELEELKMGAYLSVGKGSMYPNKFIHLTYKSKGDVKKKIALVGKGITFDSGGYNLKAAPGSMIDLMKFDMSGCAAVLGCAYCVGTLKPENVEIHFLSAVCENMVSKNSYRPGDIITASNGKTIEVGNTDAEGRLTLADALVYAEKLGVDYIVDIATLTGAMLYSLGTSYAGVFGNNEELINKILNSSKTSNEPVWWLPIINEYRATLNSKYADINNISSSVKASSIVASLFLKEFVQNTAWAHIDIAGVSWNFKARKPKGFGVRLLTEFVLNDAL
Description: Inhibition of aminopeptidase activity assays were performed against nine aminopeptidases: the M1 alanyl and M17 leucyl aminopeptidases from P. falciparum (PfA-M1; PfA-M17), P. vivax (Pv-M1; Pv-M17), and P. berghei (Pb-M1; Pb-M17), and three human M1 homologs: LTA4H (OriGene TP307617), ERAP1 (OriGene TP314469), and ERAP2 (Creative BioMart ERAP2-304H). The Plasmodium enzymes were produced recombinantly as described previously ([16], [17]), and the human recombinant enzymes were purchased from commercial suppliers as indicated.
The concentration of H-Leu-NHMec in the assay was held constant for each enzyme and ranged from 10 to 100 µM, depending on the enzyme. Reactions were measured at 37°C in white 384-well plates in a total volume of 25 or 50 µL using a spectrofluorimeter (BMG FLUOstar) with excitation at 355 nm and emission at 460 nm. The fluorescence signal was continuously monitored until a final steady-state velocity, v, was obtained. Inhibition constants were calculated from biological triplicates made from three different protein preparations.
Substrate concentrations were selected to allow sensitive detection of enzyme activity while not exceeding the Km for each enzyme. A compound concentration range was selected to obtain a complete inhibition curve (0%–100 %) in biological triplicate. Where possible, the Ki values were calculated by plotting the initial rates versus inhibitor concentration and fitting to the Morrison equation for tight-binding inhibitors in GraphPad Prism (V.8.4.1; non-linear regression method).

TM90C2B = test: microbe, parasite or virus in culture; assay type: cell-based, P. falciparum; settings: Plasmodium falciparum, read-out: EC50 nM (mean)
Description: (§2) In vitro testing was performed using the modified [^3H]hypoxanthine incorporation assay, as previously reported ([34]). The specific mutations in the field isolates (see Table 1, top six strains) have been previously described ([35], [36]), as have the specific mutations in the laboratory-selected Dd2 parasites (see Table 1, remaining five strains) ([36]).

Dd2 = test: microbe, parasite or virus in culture; assay type: cell-based, P. falciparum; settings: Plasmodium falciparum, DD2, read-out: EC50 nM (mean)
Description: as §2

K1 = test: microbe, parasite or virus in culture; assay type: cell-based, P. falciparum; settings: Plasmodium falciparum, read-out: EC50 nM (mean)
Description: as §2

7G8 = test: microbe, parasite or virus in culture; assay type: cell-based, P. falciparum; settings: Plasmodium falciparum, read-out: EC50 nM (mean)
Description: as §2

MMP2, 7, 8, 9, and 13 = test system: MMP2, 7, 8, 9, and 13; parameters: method as in PMID 30537832; settings: tested up to 200 µM; cited from earlier work
[2] = In vivo exposure after single oral dosing; settings: male, Swiss outbred, mouse, plasma, 50 mg/kg
Description: This produced a uniform off-white milky suspension of pH 6.0. […] Samples were collected by either submandibular bleed (~120 µL) or terminal cardiac puncture (under inhaled isoflurane anesthesia). Blood samples were centrifuged immediately, and supernatant plasma was removed and stored at −80°C until analysis as described above.

[3] = Plasma protein binding by ultracentrifugation; assay type: in vitro ADME; settings: plasma (10% plasma diluted with PBS), pH 7.4
Description: Human plasma was obtained from the Volunteer Blood Donor Registry (Walter & Eliza Hall Institute, Melbourne, Australia), rat plasma was from male Sprague-Dawley rats (Animal Resource Centre, Perth, Western Australia) and mouse plasma was procured as described above. RPMI-1640 media supplemented with 25 mM HEPES, 2 g/L sodium bicarbonate, and 100 mg/L neomycin were additionally supplemented with 5 […] on the day prior to binding assessment. […] Additional aliquots of spiked matrix were maintained at 37°C for 4.2 h but not centrifuged to serve as controls for stability assessment and to obtain a measure of the total concentration in each matrix. Following centrifugation, aliquots of the protein-free supernatant and the non-centrifuged matrix controls were “matrix matched” by addition of an equal volume of the opposite medium (i.e., either blank buffer or blank matrix) and assayed as described above with comparison to calibration standards prepared in 50% matrix/50% PBS.

T1 sequence (Q9BY41 whole entry): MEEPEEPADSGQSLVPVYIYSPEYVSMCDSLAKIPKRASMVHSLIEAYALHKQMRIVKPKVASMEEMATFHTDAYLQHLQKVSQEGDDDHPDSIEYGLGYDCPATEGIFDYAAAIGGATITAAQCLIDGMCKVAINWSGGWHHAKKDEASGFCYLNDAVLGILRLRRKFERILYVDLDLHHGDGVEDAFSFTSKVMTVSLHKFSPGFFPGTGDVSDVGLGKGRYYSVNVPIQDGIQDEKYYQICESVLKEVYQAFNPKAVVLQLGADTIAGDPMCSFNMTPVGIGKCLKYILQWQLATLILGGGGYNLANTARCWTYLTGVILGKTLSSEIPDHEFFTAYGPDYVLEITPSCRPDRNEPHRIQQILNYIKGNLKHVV

With `CC(C)(C)CC(=O)NC(C(=O)NO)c1ccc(-c2cc(F)c(F)c(F)c2)cc1` (stereo not shown) [MMV1557817, N-(2-(hydroxyamino)−2-oxo-1-(3′,4′,5′-trifluoro-[1,1′-biphenyl]-4-yl)ethyl)-3,3-dimethylbutanamide] the inhibition at 10 µM (HDAC8) was 6.3%, the inhibition at 10 µM (MMP-9) was 46.3% and the inhibition at 10 µM (HDAC10) was 5.3%. The inhibition at 10 µM (MMP-8) was 52.6%, the inhibition at 10 µM (MMP-3) was -0.8% and the inhibition at 10 µM (HDAC1) was 2.8%. The inhibition at 10 µM (HDAC9) was -3.6%, the inhibition at 10 µM (MMP-2) was 39.8% and the inhibition at 10 µM (HDAC5) was -2.8%. The inhibition at 10 µM (MMP-7) was -6.7%, the inhibition at 10 µM (MMP-14) was 24.1% and the Ki [1] was 300 nM. It also gave a Ki (PfA-M17) of 112 nM, an EC50 (TM90C2B) of 21 nM and an EC50 (Dd2) of 23 nM. For the same compound, the EC50 (K1) was 26 nM, the EC50 (7G8) was 28 nM and the off-target inhibition (MMP2, 7, 8, 9, and 13) was “limited off-target inhibitory affects”. It also gave an AUC(0-inf) [2] of 15.2 µM·h, an AUC(0-t) [2] of 14.9 µM·h and a Cmax [2] of 5.2 µM. For the same compound, the Tmax [2] was 0.5 h, the half-life [2] was 4.3 h and the fraction unbound at 4.2 h ([3]; male, Sprague-Dawley, rat plasma) was 0.022. For the same compound, the fraction unbound at 4.2 h ([3]; mouse plasma) was 0.023.
